Test in all cases: Minimum inhibitory concentration (MIC) in vitro in broth containing phenol red and glucose
Common to all, as to assay type: cell-based

The test system of one assay is Listeria monocytogenes. Conditions: read-out: Werte der Mindesthemmkonzentration [MIC-Werte]. From the text:
(§1) Die Mindesthemmkonzentration (MIC-Werte) der Kombination der 3 obigen Wirkstoffe und der einzelnen obigen Wirkstoffe wurden in vitro gegen die Bakterienstämme Escherichia coli 494, Bordatella bronchiseptica, Staphylococcus aureus und Listeria monocytogenes in einer Phenolrot und Glucose enthaltenden Brühe [Hersteller: Firma Difca] bestimmt.

Another assay has as its system Staphylococcus aureus. Conditions: read-out: Werte der Mindesthemmkonzentration [MIC-Werte].
Text: as §1

In assay [1] the test system is Bordatella bronchiseptica. The settings on record: read-out: Werte der Mindesthemmkonzentration [MIC-Werte].
Text: as §1

Assay [2] has as its system Gegen Chloramphenicol resistenter Stamm Escherichia coli 494. Conditions: single substance; inhibits bacterial growth for 24 hours; chloramphenicol-resistant Escherichia coli 494; read-out: Werte der Mindesthemmkonzentration [MIC-Werte].
Text: as §1

The mark [3] stands for this setting: single substance, inhibits bacterial growth for 24 hours.
Setting [4] is: single substance, inhibits bacterial growth for 24 hours, Bordatella bronchiseptica.

Converted amounts (≈) assume the structure as drawn. Read-outs that look alike come from different tables or passages of the source.

Experimental findings from patent EP0123157B1, “Medicaments and/or foodstuff concentrates with an anti-bacterial activity” (EGIS GYOGYSZERGYAR, priority 1983, dated 1984) are described below.

For the compound `Cc1ccc2c(Cl)cc(Cl)c(O)c2n1` [Chlorchinaldol, 2-(Methyl)-5,7-di-(chlor)-8-(hydroxy)-chinolin], the MIC in the assay with Listeria monocytogenes (setting [3]) was found to be 5 µg/mL (≈ 21.9 µM); in the assay with Staphylococcus aureus (setting [3]) it was 5 µg/mL (≈ 21.9 µM); in assay [1] (setting [4]), 5 µg/mL (≈ 21.9 µM); in assay [2], 200 µg/mL (≈ 877 µM).
Turning to `CN(C)CCCN1c2ccccc2Sc2ccc(Cl)cc21` [Chlorpromazin, 2-Chlor-10-[3-(dimethylamino)-propyl]-phenothiazin], the MIC in the assay on Listeria monocytogenes (24 h) was 25 µg/mL (≈ 78.4 µM); in the assay on Staphylococcus aureus (24 h), 25 µg/mL (≈ 78.4 µM); in assay [1] (24 h), 200 µg/mL (≈ 627 µM); in assay [2], 50 µg/mL (≈ 157 µM).
Regarding `COc1cc(Cc2cnc(N)nc2N)cc(OC)c1OC` [Trimethoprim, 2,4-Diamino-5-[3', 4', 5'-tri-(methoxy)-benzyl]-pyrimidin], the MIC in the assay with Listeria monocytogenes (setting [3]) was 50 µg/mL (≈ 172 µM); in the assay on Staphylococcus aureus (setting [3]), 100 µg/mL (≈ 344 µM); in assay [1] (setting [4]), 50 µg/mL (≈ 172 µM); in assay [2], 25 µg/mL (≈ 86.1 µM).
